SMILES strings stand for the structures. Structures can show the parent of a compound that is named as a salt.

The target of this test is T1, human capsaicin receptor (Homo sapiens, UniProt Q8NER1).
T1 construct: transfected with the pBK-CMV expression construct encoding the full length human capsaicin receptor using standard methods; expressed in transfected cells
Description: Calcium mobilization assay (Example 6). It counts as cell-based. The following applies: determined as described in Example 6; cells expressing human capsaicin receptor, capsaicin response. As to the method: Human embryonic kidney (HEK293) cells were transfected with the pBK-CMV expression construct encoding the full length human capsaicin receptor using standard methods. The transfected cells were selected for two weeks in media containing G418 (400 μg/ml) to obtain a pool of stably transfected cells. Independent clones were isolated from this pool by limiting dilution to obtain clonal stable cell lines for use in subsequent experiments.
This Example illustrates a representative calcium mobilization assay for use in monitoring the response of cells expressing capsaicin receptor to capsaicin and other vanilloid ligands of the capsaicin receptor, as well as for evaluating test compounds for agonist and antagonist activity.
Cells transfected with expression plasmids (as described in Example 4) and thereby expressing human capsaicin receptor are seeded and grown to 70-90% confluency in FALCON black-walled, clear-bottomed 96-well plates (#3904, BECTON-DICKINSON, Franklin Lakes, N.J.). The culture medium is emptied from the 96 well plates and FLUO-3 AM calcium sensitive dye (Molecular Probes, Eugene, Oreg.) is added to each well (dye solution: 1 mg FLUO-3 AM, 440 μL DMSO and 440 μl 20% pluronic acid in DMSO, diluted 1:250 in Krebs-Ringer HEPES (KRH) buffer (25 mM HEPES, 5 mM KCl, 0.96 mM NaH2PO4, 1 mM MgSO4, 2 mM CaCl2, 5 mM glucose, 1 mM probenecid, pH 7.4), 50 μl diluted solution per well). Plates are covered with aluminum foil and incubated at 37° C. for 1-2 hours in an environment containing 5% CO2. After the incubation, the dye is emptied from the plates, and the cells are washed once with KRH buffer, and resuspended in KRH buffer.
Agonist (e.g., olvanil, capsaicin or RTX)-induced calcium mobilization is monitored using either FLUOROSKAN ASCENT (Labsystems, Franklin, Mass.) or FLIPR (fluorometric imaging plate reader system, Molecular Devices, Sunnyvale, Calif.) instruments. Varying concentrations of the antagonists ruthenium red or capsazepine (RBI; Natick, Mass.) are added to cells concurrently with agonist (e.g., 25-50 nM capsaicin). For agonist-induced calcium responses, data obtained between 30 and 60 seconds after agonist application are used to generate the IC50 values. KALEIDAGRAPH software (Synergy Software, Reading, Pa.) is used to fit the data to the equation: y=a*(1/(1+(b/x)^c)) to determine the IC50 for the response. In this equation, y is the maximum fluorescence signal, x is the concentration of the agonist or antagonist, a is the Emax, b corresponds to the IC50 value and c is the Hill coefficient.
To measure the ability of a test compound to antagonize (inhibit) the response of cells expressing capsaicin receptors to capsaicin or other vanilloid agonist, the IC50 of capsaicin is first determined. An additional 20 μl of KRH buffer and 1 μl DMSO is added to each well of cells, prepared as described above. 100 μl capsaicin in KRH buffer is automatically transferred by the FLIPR instrument to each well. An 8-point concentration response curve, with final capsaicin concentrations of 1 nM to 3 μM, is used to determine capsaicin IC50.
Test compounds are dissolved in DMSO, diluted in 20 μl KRH buffer so that the final concentration of test compounds in the assay well is between 1 μM and 5 μM, and added to cells prepared as described above. The 96 well plates containing prepared cells and test compounds are incubated in the dark, at room temperature for 0.5 to 6 hours. It is important that the incubation not continue beyond 6 hours. Just prior to determining the fluorescence response, 100 μl capsaicin in KRH buffer at twice the IC50 concentration determined from the concentration response curve is automatically added by the FLIPR instrument to each well of the 96 well plate for a final sample volume of 200 μl and a final capsaicin concentration equal to the IC50. The final concentration of test compounds in the assay wells is between 1 μM and 5 μM. […]

T1 sequence (Q8NER1 whole entry): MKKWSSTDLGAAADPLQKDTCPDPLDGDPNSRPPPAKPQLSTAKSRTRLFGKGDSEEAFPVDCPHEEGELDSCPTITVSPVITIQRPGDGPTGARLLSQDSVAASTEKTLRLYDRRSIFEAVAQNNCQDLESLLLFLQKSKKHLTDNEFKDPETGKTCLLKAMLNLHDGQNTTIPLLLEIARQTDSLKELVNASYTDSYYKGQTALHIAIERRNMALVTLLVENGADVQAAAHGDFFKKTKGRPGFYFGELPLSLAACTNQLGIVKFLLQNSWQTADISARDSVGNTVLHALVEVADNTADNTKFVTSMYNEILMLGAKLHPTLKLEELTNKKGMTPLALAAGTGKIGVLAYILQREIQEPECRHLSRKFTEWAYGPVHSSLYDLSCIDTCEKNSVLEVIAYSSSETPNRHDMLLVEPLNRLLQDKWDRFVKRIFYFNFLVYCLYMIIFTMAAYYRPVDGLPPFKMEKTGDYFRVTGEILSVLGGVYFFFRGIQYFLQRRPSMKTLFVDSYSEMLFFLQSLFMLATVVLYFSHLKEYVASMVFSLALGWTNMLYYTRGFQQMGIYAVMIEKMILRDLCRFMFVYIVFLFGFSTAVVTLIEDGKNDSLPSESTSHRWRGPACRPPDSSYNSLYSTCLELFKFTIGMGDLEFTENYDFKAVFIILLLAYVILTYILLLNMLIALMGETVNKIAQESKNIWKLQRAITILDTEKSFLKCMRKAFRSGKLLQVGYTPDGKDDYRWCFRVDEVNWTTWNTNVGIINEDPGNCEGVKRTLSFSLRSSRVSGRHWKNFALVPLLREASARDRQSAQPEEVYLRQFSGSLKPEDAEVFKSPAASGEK

As to `CN1Cc2cc(Nc3ncnc4cc(-c5ncccc5C(F)(F)F)ccc34)ccc2C(C)(C)C1` [Compound 3, [7-(3-Trifluoromethyl-pyridin-2-yl)-quinazolin-4-yl]-(2,4,4-trimethyl-1,2,3,4-tetrahydro-isoquinolin-7-yl)-amine hydrochloride], the IC50 is below 1000 nM.

As to `COCc1cc(Nc2ccc3c(c2)NCCC3(C)C)c2ccc(-c3ncccc3C(F)(F)F)nc2n1` [Compound 10], the half-maximal inhibitory concentration (IC50) was below 1000 nM.

Turning to `CCOCc1nc(Nc2ccc3c(c2)N(C)CCO3)c2ccc(-c3ncccc3Cl)nc2n1` [Compound 6], the IC50 was below 1000 nM.

Turning to `CCOCc1nc(Nc2ccc3c(c2)N(C(C)=O)CC3(C)C)c2ccc(-c3ncccc3C)nc2n1` [Compound 7, 1-{6-[2-Ethoxymethyl-7-(3-methyl-pyridin-2-yl)-pyrido[2,3-d]pyrimidin-4-ylamino]-3,3-dimethyl-2,3-dihydro-indol-1-yl}-ethanone], the IC50 was below 1000 nM.

`CC(C)COCc1nc(Nc2ccc3c(c2)NCCC3(C)C)c2ccc(-c3ncccc3C(F)(F)F)nc2n1` [Compound 4, (4,4-Dimethyl-1,2,3,4-tetrahydro-quinolin-7-yl)-[2-isobutoxymethyl-7-(3-trifluoromethyl-pyridin-2-yl)pyrido[2,3-d]pyrimidin-4-yl]-amine hydrochloride]: the IC50 is below 1000 nM.

Turning to `CN1Cc2cc(Nc3ncnc4cc(-c5ncccc5Cl)cnc34)ccc2C(C)(C)C1` [Compound 9, [7-(3-Chloro-pyridin-2-yl)-pyrido[3,2-d]pyrimidin-4-yl]-(2,4,4-trimethyl-1,2,3,4-tetrahydro-isoquinolin-7-yl)-amine hydrochloride], the IC50 is below 1000 nM.

Take `COCc1nc(Nc2ccc3c(c2)NCCC3)c2ccc(-c3ncccc3C(F)(F)F)nc2n1` [Compound 5, [2-Methoxymethyl-7-(3-trifluorometyl-pyridin-2-yl)-pyrido[2,3-d]pyrimidin-4-yl]-(1,2,3,4-tetrahydro-quinolin-7-yl)-amine]: the 50% inhibitory concentration (IC50) is below 1000 nM.

Regarding `COCc1nc(Nc2ccc3c(c2)N(C)CCC3)c2ccc(-c3ncccc3Cl)nc2n1` [Compound 1, [7-(3-Chloro-pyridin-2-yl)-2-methoxymethyl-pyrido[2,3-d]pyrimidin-4-yl]-(1-methyl-1,2,3,4-tetrahydro-quinolin-7-yl)-amine], the IC50 is below 1000 nM.

As for `CC(C)COCc1nc(Nc2ccc3c(c2)N(C)CC3(C)C)c2ccc(-c3ncccc3Cl)nc2n1` [Compound 8, [7-(3-Chloro-pyridin-2-yl)-2-isobutoxymethyl-pyrido[2,3-d]pyrimidin-4-yl]-(1,3,3-trimethyl-2,3-dihydro-1H-indol-6-yl)-amine], the IC50 was below 1000 nM.

The values above are taken from patent US20070105865A1, “Substituted bicyclic quinazolin-4-ylamine derivatives” (Neurogen Corporation, priority 2003, published 2007).
